Usually IC50 stands for the midpoint of a concentration-inhibition curve.

Bounds are passed on as bounds.

Experimental findings from US20090042964A1, “AMINO-5-[SUBSTITUTED-4-(DIFLUOROMETHOXY)PHENYL]-5-PHENYLIMIDAZOLONE COMPOUNDS AS BETA-SECRETASE INHIBITORS” (Wyeth, priority 2007, published 2009) are described below.

This experiment deals with human BACE1 (Homo sapiens, UniProt P56817). Nature of the experiment: Fluorescent kinetic assay, evaluation of BACE1 binding affinity of test compounds. It is filed as biochemical. Conditions: 10 nM human BACE1, 25 μM substrate WABC-6, pH 4.5, room temperature; read-out: BACE1 IC50. In a few lines: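 Kinetic fluorescence assay: enzyme added last to inhibitor and substrate mix, reading started immediately; substrate at 100 μM working dilution (25 μL in 100 μL total). Buffer 66.7 mM Na-acetate pH 4.5 with 0.0667% CHAPS for inhibitor and enzyme dilutions; enzyme stock quantified at 280 nm.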
Sequence of human BACE1 (P56817 46-501): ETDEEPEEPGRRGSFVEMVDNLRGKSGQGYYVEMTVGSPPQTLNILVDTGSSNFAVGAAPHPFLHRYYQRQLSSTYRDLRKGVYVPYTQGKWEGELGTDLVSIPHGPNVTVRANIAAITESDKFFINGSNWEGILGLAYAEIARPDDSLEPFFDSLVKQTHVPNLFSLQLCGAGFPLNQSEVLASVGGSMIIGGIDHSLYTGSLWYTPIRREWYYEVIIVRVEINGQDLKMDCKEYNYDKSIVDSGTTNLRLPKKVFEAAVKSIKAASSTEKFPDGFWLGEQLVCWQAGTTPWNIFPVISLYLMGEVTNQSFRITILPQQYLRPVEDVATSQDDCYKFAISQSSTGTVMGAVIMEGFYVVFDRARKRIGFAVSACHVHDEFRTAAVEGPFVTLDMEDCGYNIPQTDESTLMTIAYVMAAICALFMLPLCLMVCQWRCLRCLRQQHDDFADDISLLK

Turning to `CCc1cc([C@@]2(c3ccc(F)c(OCC(F)F)c3)N=C(N)N(C)C2=O)ccc1OC(F)F` [Example 118, (5S)-2-Amino-5-[3-(2,2-difluoroethoxy)-4-fluorophenyl]-5-[4-(difluoromethoxy)-3-ethylphenyl]-3-methyl-3,5-dihydro-4H-imidazol-4-one], the 50% inhibitory concentration (IC50) is above 1000 nM. For `CCc1cc([C@]2(c3ccc(F)c(OCC(F)F)c3)N=C(N)N(C)C2=O)ccc1OC(F)F` [Example 119, (5R)-2-Amino-5-[3-(2,2-difluoroethoxy)-4-fluorophenyl]-5-[4-(difluoromethoxy)-3-ethylphenyl]-3-methyl-3,5-dihydro-4H-imidazol-4-one], the IC50 was below 100 nM. Regarding `CCc1cc(C2(c3ccc(F)c(OCCCF)c3)N=C(N)N(C)C2=O)ccc1OC(F)F` (centres unmarked) [Example 120, 2-Amino-5-[4-(difluoromethoxy)-3-ethylphenyl]-5-[4-fluoro-3-(3-fluoropropoxy)phenyl]-3-methyl-3,5-dihydro-4H-imidazol-4-one], the IC50 is below 100 nM. Consider `CCc1cc([C@@]2(c3ccc(F)c(OCCCF)c3)N=C(N)N(C)C2=O)ccc1OC(F)F` [Example 121, (5S)-2-Amino-5-[4-(difluoromethoxy)-3-ethylphenyl]-5-[4-fluoro-3-(3-fluoropropoxy)phenyl]-3-methyl-3,5-dihydro-4H-imidazol-4-one], for which the 50% inhibitory concentration (IC50) is above 1000 nM. `CN1C(=O)C(c2ccc(F)c(OCC(F)F)c2)(c2ccc(OC(F)F)c(C3CC3)c2)N=C1N` (centres unmarked) [Example 123, 2-Amino-5-[3-cyclopropyl-4-(difluoromethoxy)phenyl]-5-[3-(2,2-difluoroethoxy)-4-fluorophenyl]-3-methyl-3,5-dihydro-4H-imidazol-4-one]: the half-maximal inhibitory concentration (IC50) is below 100 nM. Next, `CN1C(=O)[C@@](c2ccc(F)c(OCC(F)F)c2)(c2ccc(OC(F)F)c(C3CC3)c2)N=C1N` [Example 124, (5S)-2-Amino-5-[3-cyclopropyl-4-(difluoromethoxy)phenyl]-5-[3-(2,2-difluoroethoxy)-4-fluorophenyl]-3-methyl-3,5-dihydro-4H-imidazol-4-one]: above 1000 nM; `CN1C(=O)[C@](c2ccc(F)c(OCC(F)F)c2)(c2ccc(OC(F)F)c(C3CC3)c2)N=C1N` [Example 125, (5R)-2-Amino-5-[3-cyclopropyl-4-(difluoromethoxy)phenyl]-5-[3-(2,2-difluoroethoxy)-4-fluorophenyl]-3-methyl-3,5-dihydro-4H-imidazol-4-one]: below 100 nM; `Cc1cc(C2(c3cccc(OCCC(F)F)c3)N=C(N)N(C)C2=O)ccc1OC(F)F` (centres unmarked) [Example 126, 2-Amino-5-[4-(difluoromethoxy)-3-methylphenyl]-5-[3-(3,3-difluoropropoxy)phenyl]-3-methyl-3,5-dihydro-4H-imidazol-4-one]: below 100 nM.

On to `Cc1cc([C@]2(c3cccc(OCCC(F)F)c3)N=C(N)N(C)C2=O)ccc1OC(F)F` [Example 127, (5R)-2-Amino-5-[4-(difluoromethoxy)-3-methylphenyl]-5-[3-(3,3-difluoropropoxy)phenyl]-3-methyl-3,5-dihydro-4H-imidazol-4-one], for which the IC50 was below 100 nM. Consider `Cc1cc([C@@]2(c3cccc(OCCC(F)F)c3)N=C(N)N(C)C2=O)ccc1OC(F)F` [Example 128, (5S)-2-Amino-5-[4-(difluoromethoxy)-3-methylphenyl]-5-[3-(3,3-difluoropropoxy)phenyl]-3-methyl-3,5-dihydro-4H-imidazol-4-one], for which the IC50 lay in the range of 110 to 1000 nM. As to `CN1C(=O)C(c2ccc(OC(F)F)c(CCF)c2)(c2ccc(F)c(OCC(F)F)c2)N=C1N` (centres unmarked) [Example 129, 2-Amino-5-[3-(2,2-difluoroethoxy)-4-fluorophenyl]-5-[4-(difluoromethoxy)-3-(2-fluoroethyl)phenyl]-3-methyl-3,5-dihydro-4H-imidazol-4-one], the IC50 was below 100 nM. Regarding `Cc1cc(C2(c3ccc(F)c(OCCC(F)F)c3)N=C(N)N(C)C2=O)ccc1OC(F)F` (centres unmarked) [Example 130, 2-Amino-5-[4-(difluoromethoxy)-3-methylphenyl]-5-[3-(3,3-difluoropropoxy)-4-fluorophenyl]-3-methyl-3,5-dihydro-4H-imidazol-4-one], the IC50 was below 100 nM. Next, `Cc1cc([C@@]2(c3ccc(F)c(OCCC(F)F)c3)N=C(N)N(C)C2=O)ccc1OC(F)F` [Example 131, (5S)-2-Amino-5-[4-(difluoromethoxy)-3-methylphenyl]-5-[3-(3,3-difluoropropoxy)-4-fluorophenyl]-3-methyl-3,5-dihydro-4H-imidazol-4-one]: above 1000 nM. As to `Cc1cc([C@]2(c3ccc(F)c(OCCC(F)F)c3)N=C(N)N(C)C2=O)ccc1OC(F)F` [Example 132, (5R)-2-Amino-5-[4-(difluoromethoxy)-3-methylphenyl]-5-[3-(3,3-difluoropropoxy)-4-fluorophenyl]-3-methyl-3,5-dihydro-4H-imidazol-4-one], the IC50 is below 100 nM. In the case of `CN1C(=O)C(c2ccc(F)c(OCCC(F)F)c2)(c2ccc(OC(F)F)c(C3CC3)c2)N=C1N` (centres unmarked) [Example 133, 2-Amino-5-[3-cyclopropyl-4-(difluoromethoxy)phenyl]-5-[3-(3,3-difluoropropoxy)-4-fluorophenyl]-3-methyl-3,5-dihydro-4H-imidazol-4-one], the IC50 is below 100 nM. For `CCc1cc(C2(c3ccc(F)c(OCCC(F)F)c3)N=C(N)N(C)C2=O)ccc1OC(F)F` (centres unmarked) [Example 134, 2-Amino-5-[4-(difluoromethoxy)-3-ethylphenyl]-5-[3-(3,3-difluoropropoxy)-4-fluorophenyl]-3-methyl-3,5-dihydro-4H-imidazol-4-one] the value was below 100 nM; for `CCc1cc([C@@]2(c3ccc(F)c(OCCC(F)F)c3)N=C(N)N(C)C2=O)ccc1OC(F)F` [Example 135, (5S)-2-Amino-5-[4-(difluoromethoxy)-3-ethylphenyl]-5-[3-(3,3-difluoropropoxy)-4-fluorophenyl]-3-methyl-3,5-dihydro-4H-imidazol-4-one], above 1000 nM.

In the case of `CCc1cc([C@]2(c3ccc(F)c(OCCC(F)F)c3)N=C(N)N(C)C2=O)ccc1OC(F)F` [Example 136, (5R)-2-Amino-5-[4-(difluoromethoxy)-3-ethylphenyl]-5-[3-(3,3-difluoropropoxy)-4-fluorophenyl]-3-methyl-3,5-dihydro-4H-imidazol-4-one], the IC50 was below 100 nM.

With `CC(C)c1cc(C2(c3ccccc3)N=C(N)N(C)C2=O)ccc1OC(F)F` (centres unmarked) [Example 137, 2-Amino-5-[4-(difluoromethoxy)-3-isopropylphenyl]-3-methyl-5-phenyl-3,5-dihydro-4H-imidazol-4-one], the IC50 is 110 to 1000 nM. Turning to `CN1C(=O)C(c2ccccc2)(c2ccc(OC(F)F)c(CCO)c2)N=C1N` (centres unmarked) [Example 140, 2-Amino-5-[4-(difluoromethoxy)-3-(2-hydroxyethyl)phenyl]-3-methyl-5-phenyl-3,5-dihydro-4H-imidazol-4-one], the IC50 lay within 110 to 1000 nM. Regarding `CN1C(=O)C(c2ccccc2)(c2ccc(OC(F)F)c(CCCl)c2)N=C1N` (centres unmarked) [Example 141, 2-Amino-5-[4-(difluoromethoxy)-3-(2-chloroethyl)phenyl]-3-methyl-5-phenyl-3,5-dihydro-4H-imidazol-4-one], the half-maximal inhibitory concentration (IC50) is below 100 nM. Next, `COCCc1cc(C2(c3ccccc3)N=C(N)N(C)C2=O)ccc1OC(F)F` (centres unmarked) [Example 142, 2-Amino-5-[4-(difluoromethoxy)-3-(2-methoxyethyl)phenyl]-3-methyl-5-phenyl-3,5-dihydro-4H-imidazol-4-one]: below 100 nM; `CN1C(=O)[C@@](c2ccccc2)(c2ccc(OC(F)F)c(CCCl)c2)N=C1N` [Example 144, (5R)-2-Amino-5-[3-(2-chloroethyl)-4-(difluoromethoxy)phenyl]-3-methyl-5-phenyl-dihydro-4H-imidazol-4-one]: above 1000 nM; `CC(C)c1cc(C2(c3ccc(F)c(C#CC4CC4)c3)N=C(N)N(C)C2=O)ccc1OC(F)F` (centres unmarked) [Example 145, 2-Amino-5-[3-(cyclopropylethynyl)-4-fluorophenyl]-5-[4-(difluoromethoxy)-3-isopropylphenyl]-3-methyl-3,5-dihydro-4H-imidazol-4-one]: below 100 nM. In the case of `CCc1cc(C2(c3ccc(F)c(C#CC4CC4)c3)N=C(N)N(C)C2=O)ccc1OC(F)F` (centres unmarked) [Example 146, 2-Amino-5-[3-(cyclopropylethynyl)-4-fluorophenyl]-5-[4-(difluoromethoxy)-3-ethylphenyl]-3-methyl-3,5-dihydro-4H-imidazol-4-one], the half-maximal inhibitory concentration (IC50) is below 100 nM.

As to `CCc1cc([C@]2(c3ccc(F)c(C#CC4CC4)c3)N=C(N)N(C)C2=O)ccc1OC(F)F` [Example 147, (5R)-2-Amino-5-[3-(cyclopropylethynyl)-4-fluorophenyl]-5-[4-(difluoromethoxy)-3-ethylphenyl]-3-methyl-3,5-dihydro-4H-imidazol-4-one], the 50% inhibitory concentration (IC50) is below 100 nM. Turning to `CCc1cc([C@@]2(c3ccc(F)c(C#CC4CC4)c3)N=C(N)N(C)C2=O)ccc1OC(F)F` [Example 148, (5S)-2-Amino-5-[3-(cyclopropylethynyl)-4-fluorophenyl]-5-[4-(difluoromethoxy)-3-ethylphenyl]-3-methyl-3,5-dihydro-4H-imidazol-4-one], the half-maximal inhibitory concentration (IC50) lay within 110 to 1000 nM. Take `CCc1cc(C2(c3ccc(F)c(C#CCC(C)C)c3)N=C(N)N(C)C2=O)ccc1OC(F)F` (centres unmarked) [Example 149, 2-Amino-5-[4-(difluoromethoxy)-3-ethylphenyl]-5-[4-fluoro-3-(4-methylpent-1-yn-1-yl)phenyl]-3-methyl-3,5-dihydro-4H-imidazol-4-one]: the concentration for half-maximal inhibition (IC50) is 110 to 1000 nM. Regarding `CCc1cc([C@]2(c3ccc(F)c(C#CCC(C)C)c3)N=C(N)N(C)C2=O)ccc1OC(F)F` [Example 150, (5R)-2-Amino-5-[4-(difluoromethoxy)-3-ethylphenyl]-5-[4-fluoro-3-(4-methylpent-1-yn-1-yl)phenyl]-3-methyl-3,5-dihydro-4H-imidazol-4-one], the half-inhibitory concentration (IC50) is below 100 nM.
